Experiments:
[1] = target: T1, human NaX-QTT (Homo sapiens, UniProt Q01118, F724Q/I1189T/I1492T); assay: Two-electrode voltage-clamp of Xenopus laevis oocytes expressing human NaX-QTT with blockers or multivalent cations; format: cell-based; details: for inhibition of NaX-QTT currents: oocytes
T1 construct: expressed in transfected cells; host or cells: Xenopus laevis oocytes injected with in vitro transcribed capped RNA
Protocol: FIGS. 5A-C show pharmacology of the human NaX-QTT channel. FIG. 5A, left and middle panels, show representative I-V currents from HEK293 cells expressing human NaX-QTT with indicated extracellular monovalent cations with or without indicated amounts of CaCl2 in the extracellular solution. Voltage ramp from −80 to +80 mV was applied.
(§1) Oocytes were prepared as previously described^68. Healthy-looking stage V-VI oocytes were injected with 2.5-40 ng of RNA (in 5-41 nL) using a Nanoliter 2010 injector (World Precision Instruments). When excluding one or more construct, an equivalent volume of nuclease-free water was added to maintain a constant RNA concentration across different construct combinations. Injected oocytes were kept at 18° C., 140 rpm, in ND96 supplemented with 50 μg/mL gentamicin and 50 μg/mL tetracycline (in mM: 96 NaCl, 2 KCl, 1 MgCl2, 1.8 CaCl2), 2.5 sodium pyruvate, 0.5 theophylline, 5 HEPES; pH 7.4 with NaOH) for two to five days. Two-electrode voltage-clamp measurements were performed at room temperature using a Warner OC-725C Oocyte Clamp amplifier (Warner Instrument Corp, USA) and under constant perfusion with ND96 solution (in mM: 96 NaCl, 2 KCl, 1 MgCl2, 1.8 CaCl2, 5 HEPES; pH 7.4 with NaOH). For ion selectivity experiments, external solutions contained 115 mM of test cations as chloride salts, 1.2 mM CaCl2, 2 mM MgCl2, 5 mM HEPES (pH 7.4 with the corresponding hydroxide). Data acquisition was performed using a Digidata 1550 digitizer (Molecular devices; sampled at 10 kHz) and pCLAMP 10 software (Molecular Devices). Microelectrodes from borosilicate glass capillaries (Harvard Apparatus) were prepared to have resistances around 0.2-1.0 MQ2 using a P-1000 Flaming/Brown Micropipette Puller System (Sutter Instrument) and backfilled with 3 M KCl. Aconitine and veratridine (Alomone Labs) were dissolved in DMSO to make 50 mM stocks, and were further diluted to 300 and 100 μM in ND96 for electrophysiological experiments. Other NaV activators (Alomone Labs; FIGS. 8A-D) were dissolved in water to make stock solutions. The voltage dependence of ion current was determined using a protocol consisting of steps from a holding potential of 0 mV to voltages ranging from +80 to −100 mV for 1 s in 20 mV increment.

[2] = system: Xenopus laevis oocytes; assay: Current amplitude of Xenopus laevis oocytes expressing the constructs (function of construct); format: cell-based; details: voltage-step protocols
Protocol: (*p<0.05; **p<0.01; ****p<0.0001; one-way ANOVA, Dunnett's test against NaX.)
as §1, with “Data acquisition was performed using a Digidata 1550 digitizer (Molecular devices; sampled at 10 kHz) and pCLAMP 10 software (Molecular Devices). Microelectrodes from borosilicate glass capillaries (Harvard Apparatus) were prepared to have resistances around 0.2-1.0 MQ2 using a P-1000 Flaming/Brown Micropipette Puller System (Sutter Instrument) and backfilled with 3 M KCl. Aconitine and veratridine (Alomone Labs) were dissolved in DMSO to make 50 mM stocks, and were further diluted to 300 and 100 μM in ND96 for electrophysiological experiments. Other NaV activators (Alomone Labs; FIGS. 8A-D) were dissolved in water to make stock solutions.” left out, “increment. […]” for “increment.”

[3] = system: HEK293T cells; assay: Whole-cell patch clamp of HEK293T cells expressing NaX-QTT, reversal potential and ion selectivity; format: cell-based, human
Protocol: HEK293T cells expressing NaX- or NaX-QTT-eGFP-2×FLAG were seeded on glass cover slips an hour before whole-cell patch-clamping experiments. For a more physiological condition (FIGS. 4D and 7B), the extracellular solution contained 150 mM NaCl, 5 mM KCl, 0.5 mM CaCl2, 1.2 mM MgCl2, 10 mM HEPES, and 13 mM D-(+)-glucose (pH 7.4) with NaOH, ˜320 mOsm/L, and the intracellular solution contained 140 mM CsCl, 10 mM CsF, 5 mM EGTA, 10 mM HEPES, and 2 mM Na2ATP (pH 7.2) with CsOH, ˜304 mOsm/L. To determine if NaX-QTT was cation-permeable, we first substituted all extracellular cations with NMDG^+ (FIG. 4E). Extracellular solution contained 150 mM NMDG and 10 mM HEPES (D-(+)-glucose was added accordingly to achieve osmolarity ˜325 mOsm/L and pH was adjusted to 7.4 with hydrochloric acid). To determine if NaX-QTT was anion-permeable, we substituted all Cl^− ions in both intra- and extracellular solutions with the large anion methanesulfonate (MS^−) (FIG. 15C). The extracellular solution contained 150 mM NaMS and 10 mM HEPES (D-(+)-glucose was added accordingly to achieve osmolarity ˜325 mOsm/L, and pH was adjusted to 7.4 with NaOH). The intracellular solution contained 136 mM NaMS, 10 mM NaF, 5 mM EGTA, 10 mM HEPES, and 2 mM Na2ATP (pH 7.2 with NaOH, ˜309 mOsm/L). The extracellular NMDG solution contained 150 NMDG and 10 mM HEPES (D-(+)-glucose was added accordingly to achieve osmolarity ˜325 mOsm/L, and pH was adjusted to 7.4 with methanesulfonic acid).
For ion-selectivity experiments (FIGS. 4E and 5A) (i) involving monovalent cations, the extracellular solution contained 150 mM XCl, 10 mM HEPES, and D-(+)-glucose was added accordingly to achieve osmolarity ˜325 mOsm/L, and the pH was adjusted to 7.4 with XOH, where X indicates the cation of interest (Na^+, K^+, Li+ or Cs+); (ii) involving Ca^2+, the extracellular solution contained 110 mM CaCl2, 10 mM HEPES, and D-(+)-glucose was added accordingly to achieve osmolarity ˜325 mOsm/L, and the pH was adjusted to 7.4 with Ca(OH)2; (iii) the intracellular solution contained 136 mM NaCl, 10 mM NaF, 5 mM EGTA, 10 mM HEPES, and 2 mM Na2ATP (pH 7.2) with NaOH, ˜309 mOsm/L.
For data analysis, raw current traces were typically filtered using 8-pole Bessel low-pass filter at 500-800 Hz. […] For ion-selectivity experiments performed with Na^+ intracellular solution (FIGS. 4E and 5A), liquid junction potential (LJP) was measured with reference to the Na^+ intracellular solution and corrected after recording. Relative ion permeabilities (PNa/PX) were calculated using the equation PX/PNa=[Na^+]IC exp(ErevF/RT)/[X^+]EC (X=Na, K, Li or Cs), where F is Faraday's constant, R is the gas constant, […], and Erevs were measured from the −80- to +80-m V ramp (corrected for LJP).

[4] = reported for pathogenic mutation; cited from earlier work
[5] = system: Xenopus laevis oocytes; assay: Voltage dependence of activation and steady-state inactivation of mutant NaV channels; format: cell-based; details: NaV1.7 mutant

T1 sequence (Q01118 whole entry F724Q/I1189T/I1492T): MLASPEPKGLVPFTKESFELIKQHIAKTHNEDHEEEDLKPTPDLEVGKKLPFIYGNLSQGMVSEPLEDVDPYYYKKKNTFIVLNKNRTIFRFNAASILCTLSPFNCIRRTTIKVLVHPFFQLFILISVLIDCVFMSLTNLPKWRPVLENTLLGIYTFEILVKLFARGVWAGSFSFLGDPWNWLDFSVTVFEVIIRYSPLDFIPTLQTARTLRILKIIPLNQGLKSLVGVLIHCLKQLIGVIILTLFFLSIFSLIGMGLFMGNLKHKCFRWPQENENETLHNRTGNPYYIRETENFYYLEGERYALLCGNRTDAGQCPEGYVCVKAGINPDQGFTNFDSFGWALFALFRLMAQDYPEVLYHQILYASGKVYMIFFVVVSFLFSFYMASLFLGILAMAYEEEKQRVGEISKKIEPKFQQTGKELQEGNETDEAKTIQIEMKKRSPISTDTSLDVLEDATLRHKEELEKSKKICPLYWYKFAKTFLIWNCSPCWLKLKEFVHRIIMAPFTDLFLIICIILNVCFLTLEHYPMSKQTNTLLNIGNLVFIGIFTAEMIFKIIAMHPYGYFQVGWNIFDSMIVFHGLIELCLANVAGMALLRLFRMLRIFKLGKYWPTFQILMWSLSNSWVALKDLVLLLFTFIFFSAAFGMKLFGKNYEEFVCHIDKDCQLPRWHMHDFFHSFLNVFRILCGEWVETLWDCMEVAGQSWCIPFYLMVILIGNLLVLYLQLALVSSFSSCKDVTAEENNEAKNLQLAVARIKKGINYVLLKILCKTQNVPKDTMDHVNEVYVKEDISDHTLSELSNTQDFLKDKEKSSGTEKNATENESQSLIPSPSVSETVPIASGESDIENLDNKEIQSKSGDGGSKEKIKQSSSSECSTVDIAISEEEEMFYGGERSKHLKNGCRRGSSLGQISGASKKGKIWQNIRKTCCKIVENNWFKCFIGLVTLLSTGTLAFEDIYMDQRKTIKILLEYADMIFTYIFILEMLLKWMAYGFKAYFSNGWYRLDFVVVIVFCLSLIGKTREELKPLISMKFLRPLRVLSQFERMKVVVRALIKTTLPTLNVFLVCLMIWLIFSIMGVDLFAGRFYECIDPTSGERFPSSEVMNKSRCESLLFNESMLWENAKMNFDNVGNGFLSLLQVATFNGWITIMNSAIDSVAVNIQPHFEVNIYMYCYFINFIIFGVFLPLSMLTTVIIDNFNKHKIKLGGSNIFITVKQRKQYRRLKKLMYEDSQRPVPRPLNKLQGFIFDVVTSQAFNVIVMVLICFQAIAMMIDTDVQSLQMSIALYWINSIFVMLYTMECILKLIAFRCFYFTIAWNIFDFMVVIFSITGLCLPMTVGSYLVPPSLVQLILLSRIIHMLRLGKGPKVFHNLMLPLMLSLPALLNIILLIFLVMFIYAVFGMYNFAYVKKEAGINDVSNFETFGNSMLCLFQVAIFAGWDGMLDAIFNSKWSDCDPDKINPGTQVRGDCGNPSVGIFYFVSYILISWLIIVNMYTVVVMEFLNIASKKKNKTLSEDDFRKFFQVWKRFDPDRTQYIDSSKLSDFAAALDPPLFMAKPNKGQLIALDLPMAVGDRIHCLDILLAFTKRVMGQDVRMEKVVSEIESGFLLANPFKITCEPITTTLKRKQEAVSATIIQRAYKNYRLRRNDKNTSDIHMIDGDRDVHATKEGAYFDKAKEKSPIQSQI

## C=C[C@H]1C[N@@]2CC[C@H]1C[C@@H]2[C@@H](O)c1ccnc2ccc(OC)cc12 [quinidine]
[1]; at high μM concentrations
  inhibition of NaX-QTT currents: equally potent inhibitors

## COc1ccccc1OCC(O)CN1CCN(CC(=O)Nc2c(C)cccc2C)CC1 (stereo not shown) [ranolazine]
[1]; at concentrations up to 300 μM
  inhibition of NaX-QTT currents: strong inhibitory effects were not observed

## NC1=N[C@H](O)[C@H]2[C@H]3O[C@]4(O)O[C@@H]([C@@H](O)[C@@]2(N1)[C@@H]4O)[C@]3(O)CO [tetrodotoxin]
[1]
  inhibitory effect on NaX-QTT: inhibitory effects

## Construct 24: triple-mutant NaX channel construct (F724Q-I1189T-I1492T) with polar substitutions at three S6-gate lining positions
[2]
  ionic currents of the construct expressed alone: robust ionic currents
[3]; HEK293T cells, all extracellular cations replaced with NMDG
  reversal potential: below −100 mV
[3]; HEK293T cells, physiological extracellular solution
  reversal potential: +5 mV
[3]; extracellular monovalent cations 150 mM
  discrimination between monovalent cations: does not effectively discriminate
[3]; symmetrical NaCl/NaCl, ramp −80 to +80 mV, 150 mM Na^+ intracellular
  reversal potential: ~0 mV

## Construct 25: L390E/I1189E/I1492E triple-mutant NaX channel construct
[2]
  ionic currents of the construct expressed alone: much lower current amplitudes

## Ser211Pro: pathogenic Ser211Pro mutation in NaV1.7
[4]
  hyperpolarization of channel activation: −12 mV

## Ser1269Phe: Ser1269Phe substitution in NaV1.7
[5]
  depolarizing shift of activation: ~8 mV

## ΔLeu966: in-frame DII-S6 deletion in NaV1.7
[5]
  hyperpolarization of activation: −16 mV

B1: Ser209Phe: pathogenic Ser209Phe mutation in KCNQ1 (protein, UniProt P51787 1-676, looked up, variant S209F)
Potassium voltage-gated …: MAAASSPPRAERKRWGWGRLPGARRGSAGLAKKCPFSLELAEGGPAGGALYAPIAPGAPGPAPPASPAAPAAPPVASDLGPRPPVSLDPRVSIYSTRRPVLARTHVQGRVYNFLERPTGWKCFVYHFAVFLIVLVCLIFSVLSTIEQYAALATGTLFWMEIVLVVFFGTEYVVRLWSAGCRSKYVGLWGRLRFARKPISIIDLIVVVAFMVVLCVGSKGQVFATSAIRGIRFLQILRMLHVDRQGGTWRLLGSVVFIHRQELITTLYIGFLGLIFSSYFVYLAEKDAVNESGRVEFGSYADALWWGVVTVTTIGYGDKVPQTWVGKTIASCFSVFAISFFALPAGILGSGFALKVQQKQRQKHFNRQIPAAASLIQTAWRCYAAENPDSSTWKIYIRKAPRSHTLLSPSPKPKKSVVVKKKKFKLDKDNGVTPGEKMLTVPHITCDPPEERRLDHFSVDGYDSSVRKSPTLLEVSMPHFMRTNSFAEDLDLEGETLLTPITHISQLREHHRATIKVIRRMQYFVAKKKFQQARKPYDVRDVIEQYSQGHLNLMVRIKELQRRLDQSIGKPSLFISVSEKSKDRGSNTIGARLNRVEDKVTQLDQRLALITDMLHQLLSLHGGSTPGSGGPPREGGAHITQPCGSGGSVDPELFLPSNTLPTYEQLTVPRRGPDEGS
[4]
  hyperpolarization of channel activation: −45 mV
